Our source for the EC50 values is patent US10654856B2, “Method for preparing pyrrolo[3,2-D]pyrimidine compound, and intermediates thereof” (CHIA TAI TIANQING PHARMACEUTICAL GROUP CO., LTD., priority 2016, dated 2020).

The target of this assay is Toll-like receptor 7 (Homo sapiens (Human), UniProt Q9NYK1). Briefly: Toll-like receptor 7 in vitro receptor binding activity screen (HEK-blue hTLR7 cell, Quanti-Blue alkaline phosphatase readout). Conditions: 24 h incubation, read-out: TLR7 EC50. Type of assay: cell-based. The procedure: Toll-Like Receptor 7 and Toll-Like Receptor 8 In Vitro Receptor Binding Activity Screen
HEK-blue hTLR7 cell and HEK-blue hTLR8 cell (available from InvivoGen)
heat inactivated fetal bovine serum
Anti Mycoplasma reagent Normocin™
The structures of GS-9620 and R848 used are as follows, wherein the preparation of GS-9620 could be referred to the process disclosed in US20100143301; R848 was commercially available from ABGENT (IMG-2208, specification: 0.5 mg).
1. Preparation of 96-well compound plate:
The compounds were gradient diluted with DMSO in 3-fold using liquid work station POD starting at a concentration of 10 mmol/L and 10 points were diluted (2nd column to 11th column, and each point was duplicated). At 12th column, 1 μL of 5 mg/mL positive compound R848 was added as positive control; and at 1st column, 1 μL of DMSO was added as negative control. Each well contained 1 μL of DMSO.
2. The cells in culture flask were collected and the cell density was diluted to 250,000 cells/mL.
3. 200 μL (50,000 cells/well) of cell suspension was added into prepared compound plate and the final concentration of DMSO in each well was 0.5%.
4. The culture plates containing cells and the compounds were incubated in CO2 incubator for 24 h at 37° C., 5% CO2.
5. After 24 h incubation, 20 μL of supernatant was removed from each well to a 96-well transparent assay plate. To each well of the assay plate was added 180 μL of Quanti-Blue reagent and the plate was incubated in an incubator at 37° C., 5% CO2 for 1 h.
6. After 1 h, the content of alkaline phosphatase in 20 μL of supernatant was determined using Microplate Reader OD650.
7. EC50 of each compound was obtained with Prism software.

Sequence of Toll-like receptor 7 (Q9NYK1 27-1049): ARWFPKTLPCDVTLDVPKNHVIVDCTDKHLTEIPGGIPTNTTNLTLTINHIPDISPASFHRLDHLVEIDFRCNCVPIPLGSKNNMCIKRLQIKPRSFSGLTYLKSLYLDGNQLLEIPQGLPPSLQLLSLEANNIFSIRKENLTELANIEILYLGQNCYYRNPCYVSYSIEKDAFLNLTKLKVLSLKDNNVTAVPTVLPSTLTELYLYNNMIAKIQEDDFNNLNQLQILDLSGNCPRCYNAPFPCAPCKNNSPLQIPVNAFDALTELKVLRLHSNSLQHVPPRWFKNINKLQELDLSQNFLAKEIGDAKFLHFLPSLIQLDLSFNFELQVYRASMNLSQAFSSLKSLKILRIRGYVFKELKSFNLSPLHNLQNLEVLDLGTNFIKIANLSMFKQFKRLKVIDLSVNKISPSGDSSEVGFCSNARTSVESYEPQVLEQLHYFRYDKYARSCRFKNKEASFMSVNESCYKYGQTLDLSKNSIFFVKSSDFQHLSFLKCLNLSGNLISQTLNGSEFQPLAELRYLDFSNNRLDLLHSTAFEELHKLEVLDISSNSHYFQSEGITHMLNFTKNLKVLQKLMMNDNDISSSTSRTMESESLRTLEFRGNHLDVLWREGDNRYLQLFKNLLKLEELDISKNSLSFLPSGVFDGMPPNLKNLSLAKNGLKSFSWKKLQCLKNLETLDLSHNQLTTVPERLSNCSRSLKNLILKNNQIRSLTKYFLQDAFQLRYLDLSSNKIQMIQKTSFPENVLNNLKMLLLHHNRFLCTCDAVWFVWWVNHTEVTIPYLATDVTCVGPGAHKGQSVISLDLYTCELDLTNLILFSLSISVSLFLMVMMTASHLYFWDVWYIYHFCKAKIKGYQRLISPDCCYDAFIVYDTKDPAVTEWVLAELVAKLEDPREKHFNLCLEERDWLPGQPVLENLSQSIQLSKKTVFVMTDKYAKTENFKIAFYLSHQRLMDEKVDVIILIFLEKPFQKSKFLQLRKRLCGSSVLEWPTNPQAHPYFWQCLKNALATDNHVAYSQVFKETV

By EC50 is commonly meant the concentration that produces a half-maximal response. Take `CCCCOc1nc(N)c2[nH]cc(Cc3ccc(CN(CCC)CCC)cc3)c2n1` [Compound 10]: the EC50 lay in the range of 100 to 1000 nM.

For `CCCCOc1nc(N)c2[nH]cc(Cc3ccc(CN4CCC(OC)CC4)cc3)c2n1` [Compound 15], the EC50 was in the range of 100 to 1000 nM.

Consider `CCCCOc1nc(N)c2[nH]cc(Cc3ccc(CN4CCCCC4)cc3)c2n1` [Compound 5], for which the EC50 was in the range of 100 to 1000 nM.

Regarding `CCCCOc1nc(N)c2[nH]cc(Cc3ccc(CN4CCC(O)C4)cc3)c2n1` (stereo not shown) [Compound 4], the EC50 is 100 to 1000 nM.

As for `CCCCOc1nc(N)c2[nH]cc(Cc3ccc(CN4CCC(F)C4)cc3)c2n1` (stereo not shown) [Compound 3], the EC50 is 100 to 1000 nM.

For `CCCCOc1nc(N)c2[nH]cc(Cc3ccc(CN4CC(OC)C4)cc3)c2n1` [Compound 12], the EC50 was in the range of 100 to 1000 nM.

Regarding `CCCCOc1nc(N)c2[nH]cc(Cc3ccc(CN(CC)CC)cc3)c2n1` [Compound 9], the EC50 is 100 to 1000 nM.

With `CCCCOc1nc(N)c2[nH]cc(Cc3ccc(CN4CCOCC4)cc3)c2n1` [Compound 6], the concentration for a half-maximal effect (EC50) lay within 1000 to 50000 nM.

For `CCCCOc1nc(N)c2[nH]cc(Cc3ccc(CN4CCC(F)(F)C4)cc3)c2n1` [Compound 2], the EC50 fell in the range of 1000 to 50000 nM.

With `CCCCOc1nc(N)c2[nH]cc(Cc3ccc(CN4CCN(C)CC4)cc3)c2n1` [Compound 7], the EC50 is 1000 to 50000 nM.

As to `CCCCOc1nc(N)c2[nH]cc(Cc3ccc(CN4CCN(C(C)C)CC4)cc3)c2n1` [Compound 16], the half-maximal effective concentration (EC50) was 100 to 1000 nM.

Take `CCCCOc1nc(N)c2[nH]cc(Cc3ccc(CN4CCCC4)cc3)c2n1` [Compound 1, 2-butoxy-7-(4-(pyrrolidin-1-ylmethyl)benzyl)-5H-pyrrolo[3,2-d]pyrimidin-4-amine]: the EC50 was in the range of 100 to 1000 nM.

Take `CCCCOc1nc(N)c2[nH]cc(Cc3ccc(CN4CC(C)OC(C)C4)cc3)c2n1` (stereo not shown) [Compound 14]: the EC50 lay within 100 to 1000 nM.

`CCCCOc1nc(N)c2[nH]cc(Cc3ccc(CN4CCC4)cc3)c2n1` [Compound 11]: the EC50 was in the range of 100 to 1000 nM.

With `CCCCOc1nc(N)c2[nH]cc(Cc3ccc(CN(C)C)cc3)c2n1` [Compound 8], the EC50 is 100 to 1000 nM.

Regarding `CCCCOc1nc(N)c2[nH]cc(Cc3ccc(CN4CCCN(C)CC4)cc3)c2n1` [Compound 13], the EC50 lay within 100 to 1000 nM.
